Results from ChEMBL document CHEMBL4483862, “Open-source discovery of chemical leads for next-generation chemoprotective antimalarials” (2018).

Tested on: Plasmodium berghei
Experiment: Luciferase/luciferin-expressing antifolate-resistant parasites were used to infect a culture of HepG2 cells that were pre-incubated with compounds. Infected hepatocytes emit light due to the luciferase reaction. Assay results are presented as the percent inhibition of light emission compared to control. […]
Type: functional
Settings: sporozoite; for IC90: read-out: LUCIFERASE INFECTION ASSAY - IC90
[1] = read-out: LUCIFERASE INFECTION ASSAY - IC50

## O=C(/C=C/c1ccc(-n2nncc2-c2ccccc2)cc1)c1ccccc1
HEPG2TOX_HILL_SLOPE 8.1, HEPG2TOX_R_SQUARED 0.474, PBLUC_HILL_SLOPE 4.46, PBLUC_R_SQUARED 0.811, read-out: LUCIFERASE INFECTION ASSAY - IC50
  IC50: 6.74 µM
  IC90: > 10 µM

## COc1ccc(CCNC(=O)c2ccccc2NC(=O)c2cc(OC)c(OC)c(OC)c2)cc1OC
PBLUC_HILL_SLOPE 2.16, PBLUC_R_SQUARED 0.652, read-out: LUCIFERASE INFECTION ASSAY - IC50
  IC50: 3.54 µM
  IC90: > 6.67 µM

## CCCCn1nc(C(=O)NNC(=O)Nc2ccc([N+](=O)[O-])cc2)c2ccccc2c1=O
HEPG2TOX_HILL_SLOPE 2.25, HEPG2TOX_R_SQUARED 0.286, read-out: LUCIFERASE INFECTION ASSAY - IC50
  IC50: > 10 µM
  IC90: > 10 µM

## O=C(OCc1cnn(-c2ccccc2)c1)c1cc([N+](=O)[O-])ccc1N1CCCC1
HEPG2TOX_HILL_SLOPE 1.67, HEPG2TOX_R_SQUARED 0.935, PBLUC_HILL_SLOPE 0.776, PBLUC_R_SQUARED 0.413, read-out: LUCIFERASE INFECTION ASSAY - IC50
  IC50: 9.4 µM
  IC90: > 10 µM

## CCc1cccc2c(/C=C3\C(=O)Nc4ccccc43)c[nH]c12
[1]
  IC50: 6.04 µM
  IC90: > 10 µM

## CC(=O)Nc1ccc(-c2cnc3ccc(-c4cccnc4)nn23)cc1
[1]
  IC50: 0.572 µM
  IC90: 1.22 µM

## COC(=O)c1sc2nccnc2c1N
[1]
  IC50: > 15.8 µM
  IC90: > 15.8 µM

## CC(C)n1ncc2cc(C(=O)Nc3nc(-c4ccccn4)cs3)cnc21
[1]
  IC50: 1.07 µM
  IC90: 2.1 µM

## CCc1cccc(CC)c1N1C(=O)/C(=C\c2ccc(C(C)(C)C)cc2)N(C)C1=S
FFLUC_HILL_SLOPE 0.556, FFLUC_R_SQUARED 0.412, PBLUC_HILL_SLOPE 2.98, PBLUC_R_SQUARED 0.687, read-out: LUCIFERASE INFECTION ASSAY - IC50
  IC50: 5.42 µM
  IC90: > 10 µM

## Cc1cc(C)nc(-n2nc(C)cc2NC(=O)CN2CCc3ccccc3C2)n1
HEPG2TOX_HILL_SLOPE 7.28, HEPG2TOX_R_SQUARED 0.662, read-out: LUCIFERASE INFECTION ASSAY - IC50
  IC50: > 10 µM
  IC90: > 10 µM

## CCOc1ccc(CN(C)c2ncnc3sc(C)c(C)c23)cc1OC
HEPG2TOX_HILL_SLOPE 1.19, HEPG2TOX_R_SQUARED 0.971, PBLUC_HILL_SLOPE 15.4, PBLUC_R_SQUARED 0.0404, read-out: LUCIFERASE INFECTION ASSAY - IC50
  IC50: 3.16 µM
  IC90: 3.65 µM

## CCc1ccc(CN(C)CC(O)COc2cccc3ccccc23)cc1 (stereo not given)
[1]
  IC50: > 10 µM
  IC90: > 10 µM

## CC1CCc2c(C(=O)Nc3cccc(Br)c3)csc2C1 (stereo not given)
PBLUC_HILL_SLOPE 12.9, PBLUC_R_SQUARED 0.0655, read-out: LUCIFERASE INFECTION ASSAY - IC50
  IC50: 9.3 µM
  IC90: > 9.42 µM

## CC(Sc1cc(C(N)=O)c2ccccc2n1)C(=O)Nc1cccc(F)c1 (stereo not given)
[1]
  IC50: > 10 µM
  IC90: > 10 µM

## COc1ccc(-n2c(C)cc(/C=C(\C#N)C(=O)NCC(c3cccs3)N3CCOCC3)c2C)cc1 (stereo not given)
PBLUC_HILL_SLOPE 6.75, PBLUC_R_SQUARED 0.0585, read-out: LUCIFERASE INFECTION ASSAY - IC50
  IC50: > 10 µM
  IC90: > 10 µM

## CSc1nccc(-c2ccc3c(c2)CCC(C)(C)O3)n1
PBLUC_HILL_SLOPE 0.747, PBLUC_R_SQUARED 0.886, read-out: LUCIFERASE INFECTION ASSAY - IC50
  IC50: 0.583 µM
  IC90: 11 µM

## CCOC(=O)c1sc(N)c(C#N)c1COC(=O)C1(c2cccc(F)c2)CCCC1
HEPG2TOX_HILL_SLOPE 2.42, HEPG2TOX_R_SQUARED 0.924, PBLUC_HILL_SLOPE 2.7, PBLUC_R_SQUARED 0.388, read-out: LUCIFERASE INFECTION ASSAY - IC50
  IC50: 3.67 µM
  IC90: 8.29 µM

## Cc1ccc2nc(NC(=O)c3cc(F)c(F)cc3F)c(C(=O)NC3CCCC3)n2c1
HEPG2TOX_HILL_SLOPE 1.15, HEPG2TOX_R_SQUARED 0.906, PBLUC_HILL_SLOPE 3.53, PBLUC_R_SQUARED 0.394, read-out: LUCIFERASE INFECTION ASSAY - IC50
  IC50: 1.47 µM
  IC90: 2.75 µM

## Cn1c(CSCc2nc(-c3ccc(Cl)cc3)cs2)nnc1SCC(=O)Nc1ccc(Cl)cc1
HEPG2TOX_HILL_SLOPE 16.7, HEPG2TOX_R_SQUARED 0.854, PBLUC_HILL_SLOPE 1.35, PBLUC_R_SQUARED 0.574, read-out: LUCIFERASE INFECTION ASSAY - IC50
  IC50: > 6.15 µM
  IC90: > 6.15 µM

## COc1ccc(-c2cnn3ccc(Nc4ccc(OC)nc4)nc23)c(OC)c1
HEPG2TOX_HILL_SLOPE 6.09, HEPG2TOX_R_SQUARED 0.857, PBLUC_HILL_SLOPE 12.3, PBLUC_R_SQUARED 0.558, read-out: LUCIFERASE INFECTION ASSAY - IC50
  IC50: 3.03 µM
  IC90: 3.63 µM

## COc1ccc(CNC(=O)/C=C/c2csc(N(C(C)=O)c3cccc(C(F)(F)F)c3)n2)cc1
[1]
  IC50: > 10 µM
  IC90: > 10 µM

## Cc1nc2ccccc2n1CCNC(=O)c1ccc(Cl)cc1NC(=O)c1cccs1
PBLUC_HILL_SLOPE 48.3, PBLUC_R_SQUARED 0.528, read-out: LUCIFERASE INFECTION ASSAY - IC50
  IC50: 4.56 µM
  IC90: 4.77 µM

## CCN(CC)C(=S)SCC(=O)c1cc(C)n(-c2ccccc2)c1C
[1]
  IC50: 4.85 µM
  IC90: > 10 µM

## CC(C)(C)c1cc(NC(=O)Nc2ccc(C#N)cc2)n(-c2ccccc2)n1
PBLUC_HILL_SLOPE 3.93, PBLUC_R_SQUARED 0.959, read-out: LUCIFERASE INFECTION ASSAY - IC50
  IC50: 0.0279 µM
  IC90: 0.0487 µM

## CCn1c2ccccc2c2cc([N+](=O)[O-])ccc21
HEPG2TOX_HILL_SLOPE 12, HEPG2TOX_R_SQUARED 0.261, PBLUC_HILL_SLOPE 16.8, PBLUC_R_SQUARED 0.0444, read-out: LUCIFERASE INFECTION ASSAY - IC50
  IC50: 13.7 µM
  IC90: > 13.7 µM

## COc1ccc(-c2csc(CC(=O)NCc3ccccc3)n2)c(OC)c1
[1]
  IC50: > 10 µM
  IC90: > 10 µM

## CCN(CC)CCn1c(NC(=O)c2cc3c(C)nn(Cc4ccccc4)c3s2)nc2ccccc21
FFLUC_HILL_SLOPE 11, FFLUC_R_SQUARED 0.377, PBLUC_HILL_SLOPE 1.67, PBLUC_R_SQUARED 0.43, read-out: LUCIFERASE INFECTION ASSAY - IC50
  IC50: 1.42 µM
  IC90: 5.29 µM

## CC(NC1CCCCCC1)C(=O)c1c[nH]c2ccccc12 (stereo not given)
[1]
  IC50: > 10 µM
  IC90: > 10 µM

## COc1ccc(C(=O)Nc2ccccc2-c2nc3ccccc3[nH]2)cc1S(=O)(=O)N1CCCC1
PBLUC_HILL_SLOPE 15.4, PBLUC_R_SQUARED 0.501, read-out: LUCIFERASE INFECTION ASSAY - IC50
  IC50: 8.92 µM
  IC90: > 10 µM

## Cc1nc2ccccc2n1CCC(=O)Nc1cccc(Cl)c1
PBLUC_HILL_SLOPE 4.62, PBLUC_R_SQUARED 0.253, read-out: LUCIFERASE INFECTION ASSAY - IC50
  IC50: 5.29 µM
  IC90: 8.51 µM

## COc1ccc(N(CCCN2C(=O)c3cccc4cccc(c34)C2=O)C(=O)c2ccccc2Cl)cc1
HEPG2TOX_HILL_SLOPE 2.18, HEPG2TOX_R_SQUARED 0.863, PBLUC_HILL_SLOPE 2.29, PBLUC_R_SQUARED 0.755, read-out: LUCIFERASE INFECTION ASSAY - IC50
  IC50: 0.251 µM
  IC90: 0.656 µM

## COc1cc(OC)c(C2=CCN(c3cc(=O)n4ccccc4n3)CC2)c(OC)c1
PBLUC_HILL_SLOPE 11.4, PBLUC_R_SQUARED 0.492, read-out: LUCIFERASE INFECTION ASSAY - IC50
  IC50: 9.03 µM
  IC90: > 10 µM

## CN(C)CCNC(=O)c1ccc(-c2cc(-c3cc4ccccc4s3)cnc2N)cc1
[1]
  IC50: > 7.92 µM
  IC90: > 7.92 µM

## CC(C)c1ccc(-c2ccc3nnc(-c4ccc5nccnc5c4)n3c2)cc1
[1]
  IC50: > 10 µM
  IC90: > 10 µM

## CCOc1ccccc1N/C=C1/C(=O)N(Cc2ccc3c(c2)OCO3)C(=O)c2ccccc21
[1]
  IC50: > 10 µM
  IC90: > 10 µM

## FC(F)(F)Oc1ccc(Nc2cc(-c3cccc(Cl)c3)ncn2)cc1
[1]
  IC50: > 9.02 µM
  IC90: > 9.02 µM

## O=C(Nc1cccc(C(F)(F)F)c1)Nc1ccc2nc(Cc3ccccc3)nn2c1
HEPG2TOX_HILL_SLOPE 10.6, HEPG2TOX_R_SQUARED 0.963, PBLUC_HILL_SLOPE 15.5, PBLUC_R_SQUARED 0.643, read-out: LUCIFERASE INFECTION ASSAY - IC50
  IC50: 3.3 µM
  IC90: 3.8 µM

## Clc1ccc2c(Sc3nnc4ccccn34)ccnc2c1
[1]
  IC50: > 10 µM
  IC90: > 10 µM

## C/C(=N\NC(=O)c1ccccc1)c1ccccc1O
HEPG2TOX_HILL_SLOPE 1.31, HEPG2TOX_R_SQUARED 0.966, PBLUC_HILL_SLOPE 10.4, PBLUC_R_SQUARED 0.464, read-out: LUCIFERASE INFECTION ASSAY - IC50
  IC50: > 13 µM
  IC90: > 13 µM

## CC(Nc1ccc(Oc2cccc(F)c2)cc1)C(=O)N1CCNC1=O (stereo not given)
PBLUC_HILL_SLOPE 25, PBLUC_R_SQUARED 0.491, read-out: LUCIFERASE INFECTION ASSAY - IC50
  IC50: 0.991 µM
  IC90: 1.08 µM

## O=C(CCc1ccc(-c2ccccc2)o1)Nc1nc(-c2ccccn2)cs1
FFLUC_HILL_SLOPE 12.1, FFLUC_R_SQUARED 0.705, read-out: LUCIFERASE INFECTION ASSAY - IC50
  IC50: > 10 µM
  IC90: > 10 µM

## Cc1cccc(OC2CCN(C(=O)NCc3cc[nH]n3)CC2)c1C
[1]
  IC50: > 10 µM
  IC90: > 10 µM

## COc1ccccc1NC(=O)/C=c1\s/c(=C\c2ccc(-c3ccccc3F)o2)c(=O)n1C
HEPG2TOX_HILL_SLOPE 2.21, HEPG2TOX_R_SQUARED 0.937, PBLUC_HILL_SLOPE 21.9, PBLUC_R_SQUARED 0.468, read-out: LUCIFERASE INFECTION ASSAY - IC50
  IC50: 3.39 µM
  IC90: 3.75 µM

## N#Cc1c(-c2ccccc2)c(-c2ccccc2)n(C2CCCCC2)c1NC(=O)CCN1C(=O)c2ccccc2C1=O
FFLUC_HILL_SLOPE 12.4, FFLUC_R_SQUARED 0.654, read-out: LUCIFERASE INFECTION ASSAY - IC50
  IC50: > 10 µM
  IC90: > 10 µM

## CC(C)c1ccc(C(NCC(=O)NC(=O)NC2CCCC2)c2cccs2)cc1 (stereo not given)
[1]
  IC50: > 10 µM
  IC90: > 10 µM
